≈ marks a conversion by molar mass, not a printed value. Where two headings read alike, the source gives them in different places.
Experiments:
B. catarrhalis W-0500 = assay: MIC, agar plate dilution method; type: cell-based; details: Moraxella catarrhalis
Description: (§1) The effect of the first aspect of the present invention resides in the creation of a novel and useful 16-membered macrolide derivative. Antimicrobial activities of the compounds of the present invention were determined by measuring minimum inhibitory concentration (MIC). Minimum inhibitory concentration was determined by the agar plate dilution method in the following manner.
(§2) Test strains were subjected to seed culture using Sensitivity test broth (STB, Nissui Pharmaceutical) except that the strains belonging to the genus Streptococcus, Branhamella and Haemophilus were cultured on blood agar plate. A 5 μl portion of cell suspension of the test strains having about 10^6 CFU/ml was inoculated into Sensitivity disk agar (SDA, Nissui Pharmaceutical) supplemented with 5% horse blood and incubated at 37° C. for 20 hours. Then, MIC was measured. […] Antimicrobial activities in vitro of the compounds (1) and (2) are shown in Table 1, and those of the compounds (3) and (4) in Table 3.

B. catarrhalis W-0506 = assay: MIC, agar plate dilution method; type: cell-based; details: Moraxella catarrhalis
Description: as §1, §2

E. faecalis W-73 = assay: MIC, agar plate dilution method; type: cell-based; details: Enterococcus faecalis, W73, 20 h, read-out: Antimicrobial activity (MIC)
Description: as §1, §2

H. influenzae Type b = assay: MIC, agar plate dilution method; type: cell-based; details: for MIC: Haemophilus influenzae, 20 h, read-out: Antimicrobial activity (MIC), 37° C., 20 hours, SDA with 5% horse blood
Description: as §1, §2

K. pneumoniae PCI602 = assay: MIC, agar plate dilution method; type: cell-based; details: Klebsiella pneumoniae, PCI602, 20 h, 37° C., SDA with 5% horse blood, read-out: Antimicrobial activity (MIC)
Description: as §1, §2

M. luteus ATCC9341 = assay: MIC, agar plate dilution method; type: cell-based; details: Micrococcus luteus
Description: as §1, §2

S. aureus 209P JC-1 = assay: MIC, agar plate dilution method; type: cell-based; details: for MIC: Staphylococcus aureus, 209P, 20 h, read-out: Antimicrobial activity (MIC), 37° C., 20 hours, SDA with 5% horse blood
Description: as §1, §2

S. aureus M126 = assay: MIC, agar plate dilution method; type: cell-based; details: Staphylococcus aureus, 37° C., 20 hours, SDA with 5% horse blood, read-out: Antimicrobial activity (MIC)
Description: as §1, §2

S. aureus M133 = assay: MIC, agar plate dilution method; type: cell-based; details: for MIC: Staphylococcus aureus, M133, 20 h, read-out: Antimicrobial activity (MIC), 37° C., 20 hours, SDA with 5% horse blood
Description: as §1, §2

S. aureus MS15009/pMS98 = assay: MIC, agar plate dilution method; type: cell-based; details: for MIC: Staphylococcus aureus, MS15009/PMS98, 20 h, read-out: Antimicrobial activity (MIC), 37° C., 20 hours, SDA with 5% horse blood
Description: as §1, §2

S. aureus MS15009/pMS99 = assay: MIC, agar plate dilution method; type: cell-based; details: Staphylococcus aureus, MS15009/PMS99, 20 h, read-out: Antimicrobial activity (MIC)
Description: as §1, §2

S. aureus MS15026 = assay: MIC, agar plate dilution method; type: cell-based; details: Staphylococcus aureus, 37° C., 20 hours, SDA with 5% horse blood, read-out: Antimicrobial activity (MIC)
Description: as §1, §2

S. aureus MS15027 = assay: MIC, agar plate dilution method; type: cell-based; details: Staphylococcus aureus, MS15027, 20 h, read-out: Antimicrobial activity (MIC), 37° C., 20 hours, SDA with 5% horse blood
Description: as §1, §2

S. epidermidis ATCC14990 = assay: MIC, agar plate dilution method; type: cell-based; details: Staphylococcus epidermidis, ATCC14990, 20 h, read-out: Antimicrobial activity (MIC), 37° C., 20 hours, SDA with 5% horse blood
Description: as §1, §2

S. pneumoniae IP692 = assay: MIC, agar plate dilution method; type: cell-based; details: for MIC: Streptococcus pneumoniae, IP692, 20 h, read-out: Antimicrobial activity (MIC), 37° C., 20 hours, SDA with 5% horse blood
Description: as §1, §2

S. pneumoniae Type 1 = assay: MIC, agar plate dilution method; type: cell-based; details: for MIC: Streptococcus pneumoniae, TYPE1, 20 h, read-out: Antimicrobial activity (MIC), 37° C., 20 hours, SDA with 5% horse blood
Description: as §1, §2

test strains = assay: Antimicrobial activity in vitro, test strains overall; type: cell-based; details: against most of test strains
Description: as §1, §2

Streptococcus pneumoniae = assay: Antimicrobial activity in vitro; type: cell-based; details: compared with MDM and LM-A7
Description: as §1, §2

[1] = test system: clinically important Gram-positive bacteria; assay: Antimicrobial activity / growth inhibition; type: cell-based
Description: as §1, §2

E. coli NIHJ JC-2 = assay: MIC, agar plate dilution method; type: cell-based; details: Escherichia coli, NIHJJC2, 20 h, 37° C., SDA with 5% horse blood, read-out: Antimicrobial activity (MIC)
Description: as §1, §2

H. influenzae 9334 = assay: MIC, agar plate dilution method; type: cell-based
Description: as §1, §2

S. pyogenes Cook = assay: MIC, agar plate dilution method; type: cell-based; details: Streptococcus pyogenes
Description: as §1, §2

[2] = literature; cited from earlier work
B. catarrhalis W-0400 = assay: MIC, agar plate dilution method; type: cell-based; details: Moraxella catarrhalis, W0400, 20 h, read-out: Antimicrobial activity (MIC)
Description: as §1, §2

[3] = 37° C., 20 hours, SDA with 5% horse blood
[4] = ATCC9341, 37° C., 20 hours, SDA with 5% horse blood, read-out: Antimicrobial activity (MIC)
[5] = Haemophilus influenzae, 9334, 20 h, read-out: Antimicrobial activity (MIC), 37° C., 20 hours, SDA with 5% horse blood
[6] = 20 h, read-out: Antimicrobial activity (MIC), 37° C., 20 hours, SDA with 5% horse blood

Structure (SMILES) | MIC (E. faecalis W-73; [3]) | MIC (H. influenzae Type b) | MIC (K. pneumoniae PCI602) | MIC (M. luteus ATCC9341; [4]) | MIC (S. aureus 209P JC-1) | MIC (S. aureus M126) | MIC (S. aureus M133) | MIC (S. aureus MS15009/pMS98) | MIC (S. aureus MS15009/pMS99) | MIC (S. aureus MS15026) | MIC (S. aureus MS15027) | MIC (S. epidermidis ATCC14990) | MIC (S. pneumoniae IP692) | MIC (S. pneumoniae Type 1) | MIC (E. coli NIHJ JC-2) | MIC (E. faecalis W-73) | MIC (H. influenzae 9334; [5]) | MIC (S. pyogenes Cook; [6]) | metabolism and loss of antimicrobial activity after oral administration [2] | further results
CCC(=O)O[C@@H]1CC(=O)O[C@H](C)C/C=C/C=C/[C@H](O)[C@H](C)C[C@H](CC=O)[C@H](O[C@@H]2O[C@H](C)[C@@H](O[C@H]3C[C@@](C)(OC)[C@@H](OC(=O)CC)[C@H](C)O3)[C@H](N(C)C)[C@H]2O)[C@H]1OC [(1), 3"-O-methylmidecamycin A1] | 1.56 µg/mL (≈ 1.88 µM) | 12.5 µg/mL (≈ 15.1 µM) | > 100 µg/mL | 0.05 µg/mL (≈ 0.0604 µM) | 0.2 µg/mL (≈ 0.242 µM) | > 100 µg/mL | 0.39 µg/mL (≈ 0.471 µM) | 0.2 µg/mL (≈ 0.242 µM) | > 100 µg/mL | > 100 µg/mL | 0.39 µg/mL (≈ 0.471 µM) | 0.78 µg/mL (≈ 0.942 µM) | 0.1 µg/mL (≈ 0.121 µM) | 0.1 µg/mL (≈ 0.121 µM) | – | – | – | – | – | MIC (B. catarrhalis W-0500; W0500, 20 h, read-out: Antimicrobial activity (MIC), 37° C., 20 hours, SDA with 5% horse blood): 0.78 µg/mL (≈ 0.942 µM); MIC (B. catarrhalis W-0506; W0506, 20 h, read-out: Antimicrobial activity (MIC), 37° C., 20 hours, SDA with 5% horse blood): 0.78 µg/mL (≈ 0.942 µM); antimicrobial activities in vitro compared with corresponding compounds having free 3"-hydroxyl (MDM, LM-A7) (test strains): twice as high; antimicrobial activity against Streptococcus pneumoniae (Streptococcus pneumoniae): considerably improved antimicrobial activity; antimicrobial activities (in words) [1]: strong antimicrobial activities
CCC(=O)O[C@@H]1CC(=O)O[C@H](C)C/C=C/C=C/[C@H](OC(C)=O)[C@H](C)C[C@H](CC=O)[C@H](O[C@@H]2O[C@H](C)[C@@H](O[C@H]3C[C@@](C)(OC(C)=O)[C@@H](OC(=O)CC)[C@H](C)O3)[C@H](N(C)C)[C@H]2O)[C@H]1OC [MOM, miokamycin, reference compound] | – | 50 µg/mL (≈ 55.7 µM) | > 100 µg/mL | – | 0.39 µg/mL (≈ 0.434 µM) | > 100 µg/mL | 0.78 µg/mL (≈ 0.869 µM) | 0.78 µg/mL (≈ 0.869 µM) | > 100 µg/mL | > 100 µg/mL | 0.78 µg/mL (≈ 0.869 µM) | 0.78 µg/mL (≈ 0.869 µM) | 0.2 µg/mL (≈ 0.223 µM) | 0.2 µg/mL (≈ 0.223 µM) | > 100 µg/mL | 6.25 µg/mL (≈ 6.96 µM) | 6.25 µg/mL (≈ 6.96 µM) | 0.2 µg/mL (≈ 0.223 µM) | an acyl group of a neutral sugar moiety of the administered drug is cleaved with time and antimicrobial activities of the drug itself therefore is reduced gradually | MIC (B. catarrhalis W-0500; W0500, 37° C., 20 hours, SDA with 5% horse blood, read-out: Antimicrobial activity (MIC)): 1.56 µg/mL (≈ 1.74 µM); MIC (B. catarrhalis W-0506; W0506, 37° C., 20 hours, SDA with 5% horse blood, read-out: Antimicrobial activity (MIC)): 1.56 µg/mL (≈ 1.74 µM); MIC (M. luteus ATCC9341; ATCC9341, 20 h, read-out: Antimicrobial activity (MIC), 37° C., 20 hours, SDA with 5% horse blood): 0.1 µg/mL (≈ 0.111 µM)
CCCC(=O)O[C@H]1[C@H](C)O[C@@H](O[C@H]2[C@H](N(C)C)[C@@H](O)[C@H](O[C@H]3[C@@H](CC=O)C[C@@H](C)[C@@H](O)/C=C/C=C/C[C@@H](C)OC(=O)C[C@@H](O)[C@@H]3OC)O[C@@H]2C)C[C@@]1(C)OC(=O)CC [RKM, rokitamycin, reference compound] | 1.56 µg/mL (≈ 1.88 µM) | 6.25 µg/mL (≈ 7.55 µM) | > 100 µg/mL | 0.05 µg/mL (≈ 0.0604 µM) | 0.1 µg/mL (≈ 0.121 µM) | > 100 µg/mL | 0.39 µg/mL (≈ 0.471 µM) | 0.39 µg/mL (≈ 0.471 µM) | > 100 µg/mL | > 100 µg/mL | 0.78 µg/mL (≈ 0.942 µM) | 0.78 µg/mL (≈ 0.942 µM) | 0.1 µg/mL (≈ 0.121 µM) | 0.1 µg/mL (≈ 0.121 µM) | > 100 µg/mL | 0.39 µg/mL (≈ 0.471 µM) | 6.25 µg/mL (≈ 7.55 µM) | 0.2 µg/mL (≈ 0.242 µM) | an acyl group of a neutral sugar moiety of the administered drug is cleaved with time and antimicrobial activities of the drug itself therefore is reduced gradually | MIC (B. catarrhalis W-0400): 0.39 µg/mL (≈ 0.471 µM); MIC (H. influenzae 9334; Haemophilus influenzae, 9334, 37° C., 20 hours, SDA with 5% horse blood, read-out: Antimicrobial activity (MIC)): 1.56 µg/mL (≈ 1.88 µM); Antimicrobial activity (MIC) (H. influenzae Type b; [3]): 12.5 µg/mL; Antimicrobial activity (MIC) (S. aureus 209P JC-1; [3]): 0.20 µg/mL; Antimicrobial activity (MIC) (S. aureus M133; [3]): 0.78 µg/mL; Antimicrobial activity (MIC) (S. aureus MS15009/pMS98; [3]): 0.78 µg/mL; Antimicrobial activity (MIC) (S. pneumoniae IP692; [3]): 0.20 µg/mL; Antimicrobial activity (MIC) (S. pneumoniae Type 1; [3]): 0.20 µg/mL; MIC (S. pyogenes Cook; 37° C., 20 hours, SDA with 5% horse blood, read-out: Antimicrobial activity (MIC)): 0.05 µg/mL (≈ 0.0604 µM)

— patent publication US5602106A, “16-membered macrolide derivatives” (priority 1993, dated 1997)
